Data from paper PMC7046635, “A combined experimental and modelling approach for the Weimberg pathway optimisation” (Nature Communications, 2020).

Key:
[1] = molecular target: T1, α-Ketoglutarate semialdehyde dehydrogenase (KGSADH) (Caulobacter vibrioides, UniProt A0A0H3C801); test: biochemical; design: product inhibition constants from fits of rate equations to initial rate kinetics of purified enzyme; conditions: read-out: K estimate (mM), inhibition
T1 construct: gene xylA; full-length gene in pET vector, N-terminal His tag, E. coli expression, Ni-TED and size exclusion
T1 sequence (A0A0H3C801 1-478): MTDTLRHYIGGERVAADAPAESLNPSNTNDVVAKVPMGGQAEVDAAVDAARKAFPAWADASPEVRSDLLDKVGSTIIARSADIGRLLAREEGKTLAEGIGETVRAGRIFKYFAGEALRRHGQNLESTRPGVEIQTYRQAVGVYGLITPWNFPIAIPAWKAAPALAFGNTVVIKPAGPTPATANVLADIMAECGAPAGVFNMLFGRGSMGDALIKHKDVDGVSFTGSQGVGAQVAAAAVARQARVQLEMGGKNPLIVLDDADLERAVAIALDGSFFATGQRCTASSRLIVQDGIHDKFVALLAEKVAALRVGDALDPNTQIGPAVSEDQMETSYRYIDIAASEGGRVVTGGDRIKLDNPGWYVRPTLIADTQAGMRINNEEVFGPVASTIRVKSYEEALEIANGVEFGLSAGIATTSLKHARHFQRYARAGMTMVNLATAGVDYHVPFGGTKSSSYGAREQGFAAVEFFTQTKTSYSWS
Method: (§1) All reactions completed the substrate conversion in roughly 90 min, which is in agreement with model simulations that include product inhibition (Fig. 2c). However, a much slower conversion was observed than predicted, based on initial rate kinetics excluding product inhibition (Supplementary Note 1 and Supplementary Figs. 9–11). […] For XLA and KDXD, the inhibition constants for D-xylonate and KGSA, respectively, had to be fitted based on the conversion data, as these enzymes are analysed in coupled enzyme assays. The progress curves after single enzyme additions and the required model adjustments are shown and discussed in Supplementary Note 1, all enzyme kinetic parameters are shown in Supplementary Tables 3–7. […] As a final step in model construction, the one-pot cascade model was established. The results of the sequential pathway reconstruction were used to define the ‘reference state’ for the one-pot cascade conversion of D-xylose to α-[compound left out] (Supplementary Note 1). For this, we added the five enzymes together, using amounts close to those used in the sequential experiment (2.5 μg ml^−1 XDH, 0.8 μg ml^−1 XLA, 8.67 μg ml^−1 XAD, 0.5 μg ml^−1 KDXD and 10 μg ml^−1 KGSADH). The conversion of 5 mM D-xylose via the pathway intermediates to α-[compound left out] was followed using NMR (Fig. 3a). The model based on the isolated reaction kinetics predicted the first part of the pathway accurately, i.e., D-xylose oxidation, lactone cleavage and D-xylonate dehydration. […] S2 enzyme (Supplementary Table 5), measured using an off-line colorimetric assay. […] Product inhibition for the individual metabolites and combination of metabolites was determined in initial rate experiments in a linked KGSADH assay (Supplementary Fig. 7), while for α-[compound left out] semialdehyde the binding constant was estimated in a conversion assay (Supplementary Fig. 10b).

[2] = molecular target: T2, D-xylose dehydrogenase (XDH) (Caulobacter vibrioides, UniProt B8H1Z0); test: biochemical; design: product inhibition constants from fits of rate equations to initial rate kinetics of purified enzyme; conditions: read-out: K estimate (mM), inhibition
T2 construct: gene xylB; full-length gene in pET vector, N-terminal His tag, E. coli expression, Ni-TED and size exclusion
T2 sequence (B8H1Z0 1-248): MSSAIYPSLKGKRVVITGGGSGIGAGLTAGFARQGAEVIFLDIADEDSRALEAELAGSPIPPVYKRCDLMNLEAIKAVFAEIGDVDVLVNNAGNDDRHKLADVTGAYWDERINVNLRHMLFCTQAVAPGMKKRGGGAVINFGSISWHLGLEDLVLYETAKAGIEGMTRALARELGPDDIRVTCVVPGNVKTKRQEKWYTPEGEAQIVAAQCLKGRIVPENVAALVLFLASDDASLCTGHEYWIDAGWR

[3] = molecular target: T3, D-xylonate dehydratase (XAD) (Caulobacter vibrioides, UniProt A0A0H3C6H6); test: biochemical; design: product inhibition constants from fits of rate equations to initial rate kinetics of purified enzyme; conditions: read-out: K estimate (mM), inhibition
T3 construct: gene xylD; full-length gene in pET vector, N-terminal His tag, E. coli expression
T3 sequence (A0A0H3C6H6 1-591): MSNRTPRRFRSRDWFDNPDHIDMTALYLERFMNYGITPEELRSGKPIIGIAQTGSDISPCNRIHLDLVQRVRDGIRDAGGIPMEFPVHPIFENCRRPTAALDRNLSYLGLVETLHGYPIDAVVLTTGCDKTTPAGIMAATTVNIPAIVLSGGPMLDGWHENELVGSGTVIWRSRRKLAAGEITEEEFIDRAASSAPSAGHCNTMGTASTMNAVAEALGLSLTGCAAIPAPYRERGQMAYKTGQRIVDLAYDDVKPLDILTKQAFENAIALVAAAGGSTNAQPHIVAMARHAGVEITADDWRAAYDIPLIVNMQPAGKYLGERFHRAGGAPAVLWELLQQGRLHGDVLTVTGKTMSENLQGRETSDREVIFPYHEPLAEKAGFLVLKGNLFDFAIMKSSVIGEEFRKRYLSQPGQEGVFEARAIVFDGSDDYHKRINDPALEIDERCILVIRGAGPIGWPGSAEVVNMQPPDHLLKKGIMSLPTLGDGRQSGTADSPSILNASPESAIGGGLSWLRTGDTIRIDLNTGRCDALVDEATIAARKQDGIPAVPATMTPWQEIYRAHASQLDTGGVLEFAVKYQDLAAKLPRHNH
Method: as §1

[4] = molecular target: T4, D-xylonate dehydratase (XAD) (Caulobacter vibrioides, UniProt Q9A9Z2); test: discontinuous thiobarbituric acid assay; type: biochemical; conditions: 100 mM HEPES/NaOH pH 7.5, 37 °C, enzyme stored with 17 µmol MnCl2 per mg
T4 construct: gene xylD; full-length gene in pET vector, N-terminal His tag, E. coli expression, Ni-TED and size exclusion, stored with MnCl2
T4 sequence (Q9A9Z2 whole entry): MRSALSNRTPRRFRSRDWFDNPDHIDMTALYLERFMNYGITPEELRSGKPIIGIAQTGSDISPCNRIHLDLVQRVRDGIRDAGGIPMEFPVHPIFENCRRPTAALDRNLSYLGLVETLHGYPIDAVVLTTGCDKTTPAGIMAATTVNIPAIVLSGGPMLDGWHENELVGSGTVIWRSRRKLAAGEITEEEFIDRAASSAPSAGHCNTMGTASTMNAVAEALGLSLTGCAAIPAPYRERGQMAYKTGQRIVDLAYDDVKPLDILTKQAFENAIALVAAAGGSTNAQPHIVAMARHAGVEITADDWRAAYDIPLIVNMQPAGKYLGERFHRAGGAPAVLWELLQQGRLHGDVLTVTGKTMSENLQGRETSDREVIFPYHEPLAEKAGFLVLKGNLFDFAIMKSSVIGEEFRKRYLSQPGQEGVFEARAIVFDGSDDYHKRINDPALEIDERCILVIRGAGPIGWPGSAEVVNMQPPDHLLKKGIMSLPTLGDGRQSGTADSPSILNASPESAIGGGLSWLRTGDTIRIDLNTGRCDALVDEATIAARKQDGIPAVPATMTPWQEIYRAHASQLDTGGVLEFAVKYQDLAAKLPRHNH

SMILES | Ki [1] | Ki [2] | further results
O=C(O)CCC(=O)C(=O)O [KG] | 0.28 mM | – | –
NC(=O)C1=CN([C@@H]2O[C@H](COP(=O)(O)OP(=O)(O)OC[C@H]3O[C@@H](n4cnc5c(N)ncnc54)[C@H](O)[C@@H]3O)[C@@H](O)[C@H]2O)C=CC1 [NADH] | – | 0.03 mM | –
O=C(O)[C@H](O)[C@@H](O)[C@H](O)CO [D-xylonate] | – | – | Km [4]: 790 µM

More lines, main results first:

Ki [1] | Ki [2] | SMILES | further results
– | 0.54 mM | O=C1O[C@H](CO)[C@H](O)[C@H]1O [D-xylono-1,4-lactone] | –
0.021 mM | – | O=C(O)C(=O)C[C@H](O)CO [2-keto-3-deoxy-D-xylonate] | Ki [3]: 0.86 mM
